Test results published in ChEMBL document CHEMBL4680067, “Identification of LASSBio-1945 as an inhibitor of SARS-CoV-2 main protease (MPRO) through in silico screening supported by molecular docking and a fragment-based pharmacophore model” (RSC Med Chem, 2021).

Assays:
[1] = Inhibition of SARS CoV-2 main protease; set-up: species or system Severe acute respiratory syndrome coronavirus 2
[2] = tested on: Severe acute respiratory syndrome coronavirus 2; assay: Inhibition of SARS CoV-2 main protease at 50 uM by rapidfire high-throughput mass spectrometry relative to control
[3] = Inhibition of SARS CoV-2 main protease by rapidfire high-throughput mass spectrometry; set-up: species or system Severe acute respiratory syndrome coronavirus 2
SARS-CoV-2 = assay: Antiviral activity against SARS CoV-2 infected in African green monkey Vero cells assessed as inhibition of viral replication measured after 72 hrs by qRT-PCR analysis; assay type: functional, organism-based; conditions: Severe acute respiratory syndrome coronavirus 2, Vero

COc1ccc(/N=C2/C(=O)N(Cc3ccc4ccccc4c3)c3ccc(C(N)=O)cc32)cc1
IC50 [1]: 17 µM

CCCc1cc2c(cc1S(=O)(=O)N1CCN(c3ccccc3)CC1)OCO2
inhibition [2]: 68.3%
IC50 ([3]; read-out: IC50): 16 µM

Cc1csc(C(=O)N/N=C/c2cccnc2)c1N
inhibition [2]: -6.32%

Cc1ncccc1NC(=O)Cc1cccc(Cl)c1
IC50 [3]: Not Active

O=C(Cc1cccc(Cl)c1)Nc1cccnc1
IC50 ([3]; read-out: IC50): 53.7 µM

O=C(CNc1c(-c2ccccc2)nc2ccccn12)N/N=C/c1cccc2ccccc12
inhibition [2]: 7.53%

Cc1ccc(NC(=O)Cc2cccc(Cl)c2)cn1
IC50 [3]: Not Active

Cc1cc(C(=O)N[C@@H](C)C(=O)N[C@H](C(=O)N[C@@H](CC(C)C)C(=O)N[C@H](/C=C/C(=O)OCc2ccccc2)C[C@@H]2CCNC2=O)C(C)C)no1
EC50 (SARS-CoV-2): 16.8 µM

O=C(Nc1ccccc1)Nc1cnc2ccc([N+](=O)[O-])cc2n1
inhibition [2]: 0.77%

Cc1[nH]c2ccccc2c1/C=N/N(C)C(=O)c1ccc2c(c1)OCO2
inhibition [2]: -6.66%
